In publication PMC11142126 (bioRxiv, 2024):

Experiments:
[1] = system: MOLM13 TP53 WT (MOLM13-tPPM1D); test: cells; conditions: Homo sapiens, MOLM-13, read-out: 461 / 5.3 / 107
[2] = system: K562 p21-ffLuc reporter (wildtype TP53); test: cells; conditions: Homo sapiens, K562, read-out: 461 / 5.3 / 107
[3] = system: PPM1D in MOLM13-tPPM1D cells; test: cells; conditions: read-out: 461 / 5.3 / 107
PPM1D [4] = molecular target: T1, PPM1D (Homo sapiens, UniProt O15297); test: biochemical
T1 sequence (O15297 1-420): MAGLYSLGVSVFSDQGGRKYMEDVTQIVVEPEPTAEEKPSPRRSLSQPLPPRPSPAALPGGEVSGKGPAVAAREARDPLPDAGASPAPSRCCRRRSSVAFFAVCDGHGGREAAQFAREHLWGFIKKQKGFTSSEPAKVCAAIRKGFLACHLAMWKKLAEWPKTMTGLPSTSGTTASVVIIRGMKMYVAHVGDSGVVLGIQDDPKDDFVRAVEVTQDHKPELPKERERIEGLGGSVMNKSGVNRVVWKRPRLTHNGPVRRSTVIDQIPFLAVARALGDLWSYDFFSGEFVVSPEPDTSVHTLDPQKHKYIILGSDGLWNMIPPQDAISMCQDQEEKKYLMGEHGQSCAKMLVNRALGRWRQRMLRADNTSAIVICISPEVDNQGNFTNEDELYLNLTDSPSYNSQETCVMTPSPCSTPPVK

PPM1D [5] = molecular target: T1, PPM1D; test: SPR; assay type: binding

IC50 [1]: 394 nM
EC50 [2]: 221 nM
EC50 [3]: 383 nM
IC50 (PPM1D [4]): 20 nM
Kd (PPM1D [5]): 8 nM
Structure (SMILES): Cc1ncc(Cl)cc1NCc1ccc(C(=O)N[C@@H](CC2CCCC2)C(=O)NC2CC2)s1 [GSK2830371]
